Columns and labels:
Format in all cases: functional
[1] = system: Acinetobacter calcoaceticus/baumannii complex; assay: (§1) Antibacterial activity against Acinetobacter calcoaceticus/baumannii complex isolate N2AC9-18 expressing KPC beta lactamase
[2] = system: Acinetobacter calcoaceticus/baumannii complex; assay: (§2) Antibacterial activity against Acinetobacter calcoaceticus/baumannii complex isolate MC4AC9-30 expressing KPC beta lactamase
[3] = system: Acinetobacter calcoaceticus/baumannii complex; assay: (§3) Antibacterial activity against Acinetobacter calcoaceticus/baumannii complex isolate M3AC9-7 expressing KPC beta lactamase
[4] = system: Acinetobacter calcoaceticus/baumannii complex; assay: (§4) Antibacterial activity against Acinetobacter calcoaceticus/baumannii complex isolate M3AC9-4 expressing KPC beta lactamase
[5] = system: Acinetobacter calcoaceticus/baumannii complex; assay: (§5) Antibacterial activity against Acinetobacter calcoaceticus/baumannii complex isolate M3AC9-6 expressing KPC beta lactamase
[6] = system: Escherichia coli; assay: Antibacterial activity against Escherichia coli ATCC 25922 […]
[7] = system: Acinetobacter calcoaceticus/baumannii complex; assay: (§6) Antibacterial activity against Acinetobacter calcoaceticus/baumannii complex isolate M2AC9-31 expressing KPC beta lactamase
[8] = system: Acinetobacter calcoaceticus/baumannii complex; assay: (§7) Antibacterial activity against Acinetobacter calcoaceticus/baumannii complex isolate M3AC9-2 expressing KPC beta lactamase
[9] = system: Acinetobacter calcoaceticus/baumannii complex; assay: (§8) Antibacterial activity against Acinetobacter calcoaceticus/baumannii complex isolate MC1AC9-26 expressing KPC beta lactamase
[10] = system: Acinetobacter calcoaceticus/baumannii complex; assay: (§9) Antibacterial activity against Acinetobacter calcoaceticus/baumannii complex isolate W2AC8-S10 expressing OXA-51
[11] = system: Acinetobacter calcoaceticus/baumannii complex; assay: (§10) Antibacterial activity against Acinetobacter calcoaceticus/baumannii complex isolate N2AC9-19 expressing KPC beta lactamase
[12] = system: Acinetobacter calcoaceticus/baumannii complex; assay: (§11) Antibacterial activity against Acinetobacter calcoaceticus/baumannii complex isolate C1AC9-24 expressing KPC beta lactamase
[13] = system: Pseudomonas aeruginosa; assay: Antibacterial activity against Pseudomonas aeruginosa ATCC 27853 […]
[14] = as §1
[15] = as §2
[16] = as §3
[17] = as §4
[18] = as §5
[19] = as §6
[20] = as §7
[21] = as §8
[22] = as §9
[23] = as §10
[24] = as §11

Measured: MIC

GENTAMICIN
< 1 µg/mL: [3] | [13]
> 8 µg/mL: [1] | [2] | [4] | [7] | [11] | [12]
1 µg/mL: [6] | [10]
2 µg/mL: [5] | [8]
8 µg/mL: [9]

CO/N=C(\C(=O)N[C@@H]1C(=O)N2C(C(=O)O)=C(COC(C)=O)CS[C@H]12)c1csc(N)n1 [CEFOTAXIME]
> 32 µg/mL: [14] | [15] | [16] | [17] | [18] | [19] | [20] | [21] | [23] | [24]
16 µg/mL: [13]
1 µg/mL: [6]
4 µg/mL: [22]

CC(C)(O/N=C(\C(=O)N[C@@H]1C(=O)N2C(C(=O)[O-])=C(C[n+]3ccccc3)CS[C@H]12)c1csc(N)n1)C(=O)O [CEFTAZIDIME]
2 µg/mL: [22] | [13]
1 µg/mL: [6]
> 16 µg/mL: [14] | [15] | [16] | [17] | [18] | [19] | [20] | [21] | [23] | [24]

COLISTIN
0.5 µg/mL: [1] | [2] | [7] | [8] | [9] | [11]
1 µg/mL: [3] | [4] | [5] | [12] | [13]
0.25 µg/mL: [6] | [10]

C[C@@H](O)[C@H]1C(=O)N2C(C(=O)O)=C(SCCNC=N)C[C@H]12 [IMIPENEM ANHYDROUS]
> 8 µg/mL: [14] | [16] | [17] | [18] | [20] | [23]
1 µg/mL: [6] | [22]
2 µg/mL: [13]
4 µg/mL: [24]
8 µg/mL: [15] | [19] | [21]

C[C@@H](O)[C@H]1C(=O)N2C(C(=O)O)=C(S[C@@H]3CN[C@H](CNS(N)(=O)=O)C3)[C@H](C)[C@H]12 [DORIPENEM]
> 2 µg/mL: [14] | [15] | [16] | [17] | [18] | [19] | [20] | [21] | [23] | [24]
0.12 µg/mL: [6] | [22]
0.5 µg/mL: [13]

NCC[C@H](O)C(=O)N[C@@H]1C[C@H](N)[C@@H](O[C@H]2O[C@H](CN)[C@@H](O)[C@H](O)[C@H]2O)[C@H](O)[C@H]1O[C@H]1O[C@H](CO)[C@@H](O)[C@H](N)[C@H]1O [AMIKACIN]
> 32 µg/mL: [14] | [15] | [16] | [17] | [18] | [19] | [20] | [21] | [23] | [24]
4 µg/mL: [6] | [22]
< 4 µg/mL: [13]

O=C(O)c1cn(C2CC2)c2cc(N3CCNCC3)c(F)cc2c1=O [CIPROFLOXACIN]
0.25 µg/mL: [22]

C[C@@H](O)[C@H]1C(=O)N2C(C(=O)O)=C(S[C@@H]3CN[C@H](C(=O)N(C)C)C3)[C@H](C)[C@H]12 [MEROPENEM]
> 8 µg/mL: [14] | [15] | [16] | [17] | [18] | [19] | [20] | [21] | [23]
< 1 µg/mL: [13]
4 µg/mL: [24]
1 µg/mL: [6] | [22]

CN(C)c1cc(NC(=O)CNC(C)(C)C)c(O)c2c1C[C@H]1C[C@H]3[C@H](N(C)C)C(O)=C(C(N)=O)C(=O)[C@@]3(O)C(O)=C1C2=O [TIGECYCLINE]
8 µg/mL: [13]
0.25 µg/mL: [17] | [6]
1 µg/mL: [14] | [19] | [24]
0.5 µg/mL: [15] | [16] | [18] | [20]
< 0.25 µg/mL: [22]
2 µg/mL: [21] | [23]

POLYMYXIN B
< 0.25 µg/mL: [1] | [4] | [7] | [8] | [9] | [11]
0.25 µg/mL: [6]
0.5 µg/mL: [2] | [3] | [5] | [10] | [12]
1 µg/mL: [13]

CN(C)c1ccc(O)c2c1C[C@H]1C[C@H]3[C@H](N(C)C)C(O)=C(C(N)=O)C(=O)[C@@]3(O)C(O)=C1C2=O [MINOCYCLINE]
16 µg/mL: [13]
2 µg/mL: [6] | [22]
< 2 µg/mL: [14] | [16] | [18] | [19] | [20] | [21] | [23]
8 µg/mL: [24]
4 µg/mL: [15] | [17]

C[C@H]1COc2c(N3CCN(C)CC3)c(F)cc3c(=O)c(C(=O)O)cn1c23.C[C@H]1COc2c(N3CCN(C)CC3)c(F)cc3c(=O)c(C(=O)O)cn1c23.O [LEVOFLOXACIN]
> 8 µg/mL: [14] | [15] | [16] | [17] | [18] | [19] | [20] | [21] | [23] | [24]
1 µg/mL: [22]
< 1 µg/mL: [13]

CO/N=C(\C(=O)N[C@@H]1C(=O)N2C(C(=O)[O-])=C(C[N+]3(C)CCCC3)CS[C@H]12)c1csc(N)n1
2 µg/mL: [6] | [22]
< 2 µg/mL: [13]
> 16 µg/mL: [14] | [15] | [16] | [17] | [18] | [19] | [20] | [21] | [23] | [24]
